Source: publication PMC6776562, “Inhibition of Rac1-dependent forgetting alleviates memory deficits in animal models of Alzheimer’s disease” (Protein & Cell, 2019)
“Also recorded” adds a separate entry of the source.

Key:
[1] = molecular target: Rac1 (Mus musculus, UniProt P63001); test: Rac1 activity (Rac1-GTP/total Rac1) in hippocampal tissue by PAK-PBD pull-down and Western blot after drug administration; type: in vivo, APP/PS1 mice
Method: We first assayed Rac1 activity in hippocampal tissues from AD patients and healthy age-matched, non-demented controls (Detailed information is provided in Table 1). The levels of the guanosine triphosphate (GTP)-bound active form of Rac1 were measured using the p21-binding domain (PBD) pull-down assay. The GTP-bound active form of Rac1 was pulled down through the interactive p21-activated kinase (PAK) fragment using PAK-PBD beads and measured using a Western blot assay (Fig. 1A), as described in previous studies (Shuai et al., [2010]; Liu et al., [2016]) from our laboratory and studies conducted by other research groups (Sander et al., [1998]; Barnes et al., [2008]). The total amount of Rac1 and actin were also evaluated using the Western blot analyses (See MATERIALS AND METHODS). […] Since there were no significant differences in total Rac1 levels between the experimental and control groups (See representative Western blot in all relevant figures), the ratio of Rac1-GTP to total Rac1 was taken as a measure of Rac1 activity. […] Consistent with this observation, Rac1 activity was also elevated in the hippocampus of APP/PS1 mice at different age (Fig. 1D). […] This increase was more pronounced in older flies (Fig. S1F).
(§1) Mice were treated with EHop-016 (10 mg/kg), CS7170 (50 mg/kg), CS7171 (50 mg/kg), and JKF-034 (40 mg/kg). These drugs were dissolved in saline (0.9% NaCl) containing 0.5% Tween-80 (Sigma P4780). Each mouse received 200 μL of the solution by intragastric administration once per day (administered at 9:00 am). The drug administration was started seven days before the beginning of the Morris water maze (MWM) task and was continued until the end of the assay. All control groups were fed with vehicle solution.
The hippocampal tissues from human subjects and mice were harvested and stored in a liquid nitrogen tank for biochemical assay. The tissues were homogenized in cold lysis buffer (Merck-Millipore, 20-168). The insoluble debris were removed after centrifugation at 13,000 rpm (for 10 min, at 4 °C). For GTP-bound Rac/Cdc42, lysates were incubated with GST-tagged PAK (p21-activated kinase)-PBD agarose beads (Cytoskeleton, PAK02) overnight at 4 °C. On the second day, the beads were washed three times with lysis buffer before subjecting them to SDS-PAGE (15%) and transferring them onto nitrocellulose membranes (Millipore, HATF00010). The membranes were incubated with primary antibodies (for Rac1: BD Transduction Laboratories, #610650, 1:2,000 dilution; for Cdc42, Santa Cruz Biotechnology, lot No. sc-8401, 1:500 dilution) overnight at 4 °C and with HRP-conjugated goat anti-mouse IgG (Cell Signaling Technology, #7076) for 1 h at room temperature. Intensities of the detected bands were analyzed using ImageJ software (National Institutes of Health). The total amount of Rac1 in the lysate was detected using a routine Western blot procedure. RhoA-GTP levels were measured by using the Rho-GTP monoclonal antibody (New East, lot No. 26904, Dilution: 1:1,000). Information regarding the other antibodies used is as follows: anti-RhoA (67B9), Cell Signaling, lot No. #2117, dilution: 1:1,000; anti-Actin, Clone C4, Millipore, lot No. #3018859, dilution: 1:2,000; anti-Amyloid 1-42 6E10, BioLegend, lot No. 803001, dilution: 1:1,000; anti-Phospho-PAK1 (Ser144)/PAK2 (Ser141), Cell Signaling, lot No. #2606, dilution: 1:1,000.

[2] = tested on: APP/PS1 mice; test: Morris water maze (MWM) spatial learning in AD mice; type: in vivo, mouse
Method: as §1
The MWM test, a classic paradigm used to study spatial reference memory, was performed (Vorhees and Williams, [2006]). Briefly, a circular polypropylene water tank (120 cm in diameter) was filled with opaque water and milk (20 °C ± 1 °C) and a transparent platform (15 cm diameter) was submerged (2 cm below the water surface) in the center of one of the four virtually divided quadrants. Distal cues were fixed on the wall of the tank as spatial references. For the classic training paradigm (Figs. 2 and 6), mice were allowed to find the platform within 60 s and to remain on it for at least 5 s. For the modified training paradigm (Fig. 3A), mice were trained over 5 consecutive sessions with a 1-h intervals within one day. After training, mice were returned to their home cages and the memory of the location of the platform was tested at 6 h after training (Fig. 3C–D). A mouse behavior tracking software (ANY-maze software) was used to record data automatically.

[3] = tested on: Aβ42 transgenic flies (elav/Y; UAS-Aβ42/+); test: Pavlovian olfactory aversive conditioning in AD flies; type: in vivo, Drosophila; conditions: AD flies fed 100 μmol/L EHop-016 for 7 days
Method: (§2) Flies were treated with EHop-016 (Yong-Can Biotech). The EHop-016 was dissolved in dimethyl sulfoxide (DMSO; Sigma, D8418-100ML) to make a 10-mmol/L stock solution. This solution was stored at −20 °C for later use. Before administration, 4% (m/v) sucrose solution was used to dilute the stock solution to a concentration of 100 µmol/L (working solution). After the flies were starved for 3 h in empty vials, they were fed with the working solution for 5 h. Feeding was carried out once per day until testing.
To assess learning and memory, flies underwent classic olfactory aversive conditioning. One- to two-day-old flies were collected and fed with EHop-016 (100 µmol/L) for 7 days. Training and testing were performed at 24 °C with 60% relative humidity. During training, about 100 flies were exposed to an electric shock (unconditioned stimulus [US]) paired with either 3-octanol (>95% purity; Fluka, Sigma-Aldrich) or 4-methylcyclohexanol (>99% purity; Fluka, Sigma-Aldrich) as the conditioned stimulus (CS). Performance was tested using a T-maze apparatus within which 3-octanol and 4-methylcyclohexanol were delivered from opposite arms simultaneously. […] The learning score was calculated as the difference between the number of flies in each arm divided by the sum of flies in both arms immediately after training. Performance index was calculated as the average of two reciprocal tests to avoid odor bias. […]

[4] = molecular target: Rac1 (Drosophila melanogaster, UniProt P40792); test: Rac1 activity in fly whole brain lysate by Western blot; type: in vivo; conditions: AD flies; EHop-016 100 μmol/L
Method: as §2
The hippocampal tissues from human subjects and mice were harvested and stored in a liquid nitrogen tank for biochemical assay. The tissues were homogenized in cold lysis buffer (Merck-Millipore, 20-168). The insoluble debris were removed after centrifugation at 13,000 rpm (for 10 min, at 4 °C). For GTP-bound Rac/Cdc42, lysates were incubated with GST-tagged PAK (p21-activated kinase)-PBD agarose beads (Cytoskeleton, PAK02) overnight at 4 °C. […] Intensities of the detected bands were analyzed using ImageJ software (National Institutes of Health). The total amount of Rac1 in the lysate was detected using a routine Western blot procedure. RhoA-GTP levels were measured by using the Rho-GTP monoclonal antibody (New East, lot No. 26904, Dilution: 1:1,000). […]

[5] = tested on: LTP in hippocampal slices of APP/PS1 mice; test: Long-term potentiation (fEPSP recording) in hippocampal slices; type: cell-based, mouse; conditions: brain slices of 6-month-old APP/PS1 mice; EHop-016 10 μmol/L in ACSF
Method: Acute 300-μm transverse hippocampal slices were prepared using a vibratome (VTS3000, USA). The slices were maintained at room temperature in a submersion chamber in artificial cerebrospinal fluid (ACSF) containing 125 mmol/L NaCl (Sigma, 71376), 2.5 mmol/L KCl (Sigma, P9541), 2 mmol/L CaCl2 (Sigma, 499609), 1 mmol/L MgCl2 (Sigma, M1028), 1.25 mmol/L NaH2PO4 (Sigma, S3139), 24 mmol/L NaHCO3 (Sigma, S5761) (pH = 7.4), and 15 mmol/L glucose (Sigma, G8270), bubbled with 95% O2 and 5% CO2. Slices were incubated for at least 1 h before removal for experiments. Slices were kept in the MED probe for 1 h for attachment to the 16-channel array (MED-PG515A, Alpha MED Sciences; preheated to 33 °C). Extracellular field excitatory post-synaptic potentials (fEPSPs) in the Schaffer collateral pathway were evoked at 0.025 Hz and recorded in the CA1. The fEPSPs were evoked using a stimulation intensity that elicited a 30% maximal response. Data acquisition and analysis were performed using the multi-electrode MED64 hardware and software package (Panasonic). Additional analyses were performed using custom macros running under Igor Pro. The LTP was induced by one train of theta burst stimulation (TBS) consisting of one epoch of 10 trains of five bursts repeated at 5 Hz and delivered at the same intensity as in the baseline recordings. […]

[6] = In vitro metabolic stability in human liver microsomes; type: in vitro ADME
Method: (§3) Measurements of metabolic stability can be performed with liver microsomes, which are known to contain the major drug-metabolizing enzymes and UDP-glucuronosyltransferase (Baranczewski et al., [2006]). The in vitro metabolic stability levels of CS7171 and JKF-034 were measured using human, monkey, and mouse liver microsomes. The metabolic half-time (T1/2) and intrinsic clearance (Clint) were assayed using LC-MS analysis. Ketanserin is a potent, orally effective antagonist of endogenous serotonin. Its pharmacological profile is well studied (Brogden and Sorkin, [1990]). In this study, we used ketanserin as a control. If the T1/2 of the tested compound was 30–120 min, the compound was considered to show moderate metabolism in liver microsomes. If the T1/2 value was less than 30 min, the compound was considered to be susceptible to metabolism in liver microsomes.

[7] = In vitro metabolic stability in mouse liver microsomes; type: in vitro ADME
Method: as §3

[8] = In vitro metabolic stability in monkey liver microsomes; type: in vitro ADME
Method: as §3

[9] = In vitro blood-brain barrier permeability assay; type: in vitro ADME; conditions: dog, 37 °C, MDR-MDCK
Method: The MDR-MDCK cell line can be used as a fast blood-brain barrier (BBB) model to aid drug discovery (Wang et al., [2005]). In this study, the MDR-MDCK cell line was used to evaluate the permeability coefficients of CS7171 and JKF-034. Briefly, CS7171 and JKF-034 were prepared to final concentrations of 5 μmol/L. The cells were dosed on the basolateral side (B-A) and apical side (A-B) and incubated at 37 °C for 90 min. Each test was performed in duplicate. The apparent permeability coefficient, Papp, was calculated using the following formula: Papp=VA/Area×Time×(drugacceptor,90-min/drugdonor,0-min×Dilution Factor
VA is the volume in the acceptor well, Area is the surface area of the membrane, Time is the total transport time in seconds, [drug]donor, 0-min is the donor drug concentration measured at 0 min; [drug]acceptor, 90-min is the acceptor drug concentration measured at 90 min; dilution factor is the degree of dilution of the donor sample before loading to LC-MS/MS.

[10] = tested on: Rac1 in HEK-293 cells; test: Rac1 activation in cultured cells detected by G-LISA; type: cell-based; conditions: 10 μg/mL Aβ42 oligomers in culture medium for 2 h
Method: Synthetic wide-type Aβ42 (purchased from AnaSpec) was initially dissolved in hexafluoroisopropanol (Sigma) to 5 mg/mL for subpackaging. Hexafluoroisopropanol was removed by air drying to obtain an Aβ42 peptide film, which was stored at −80 °C. Then, 24 h before the experiment, the peptide film was first re-suspended in DMSO to a concentration of 12.5 mg/mL and then diluted with Dulbecco’s Modified Eagle Medium (DMEM)/F-12 (phenol red-free; Invitrogen) to a final concentration of 500 μg/mL. The HEK-293 cells were cultured in DMEM containing 10% fetal bovine serum (FBS) at 37 °C with 5% CO2. For oligomer treatment, cells were washed with fresh medium and incubated with 10 μg/mL Aβ42 oligomers for 2 h. Cells were washed twice with PBS before they are collected for Rac1 activity detection by G-LISA (BK128, Cytoskeleton) in accordance with the manufacturer’s protocol.

[11] = APP/PS1 mice (eight-month-old), oral CS7171 50 mg/kg, CS7170 50 mg/kg, JKF-034 40 mg/kg once per day

COc1cc(C=C2C(=O)NN(c3ccc(Cl)c(Cl)c3)C2=O)ccc1O [CS7170]
hippocampal Rac1 activity (Rac1-GTP/total Rac1) [1, 11]: not and unable to inhibit Rac1 activity
MWM learning deficit / spatial memory [2, 11]: not

CCn1c2ccccc2c2cc(Nc3ccnc(NCCCN4CCOCC4)n3)ccc21 [EHop-016]
total Rac1 expression in hippocampal tissues ([1]; 9-month-old AD mice, EHop-016 10 mg/kg): without changing total Rac1 expression
Rac1 activity (Rac1-GTP/Total Rac1) in hippocampal tissues ([1]; 9-month-old AD mice, EHop-016 10 mg/kg, intragastric once per day, 10 days, 10 mg/kg): significantly inhibited Rac1 activity; also recorded: inhibition of Rac1 activity
MWM escape latency / learning deficit ([2]; 9-month-old APP/PS1 mice, EHop-016 10 mg/kg, versus vehicle-treated AD mice, 10 mg/kg): took less time to locate the hidden platform; also recorded: did not significantly differ from that of WT mice; also recorded: mitigated the learning deficit
learning defect in aversive olfactory conditioning [3]: significantly rescued the learning defects; also recorded: rescued the learning defect
Rac1 activity in whole brain lysis [4]: reduced Rac1 activity; also recorded: inhibition of Rac1 activity
total Rac1 expression [4]: without changing the total Rac1 expression
LTP maintenance (fast decay after TBS) [5]: The fast decay was rescued; also recorded: attenuated

O=C(c1ccc(F)cc1)C1CCN(CCn2c(=O)[nH]c3ccccc3c2=O)CC1 [Ketanserin, reference compound]
CLint scaled [6]: 39.5 mL/min/kg
half-life [6]: 44.1 min
CLint scaled [7]: 312 mL/min/kg
half-life [7]: 17.5 min
CLint scaled [8]: 111 mL/min/kg
half-life [8]: 18.3 min

COCCc1ccc(OCC(O)CNC(C)C)cc1 (stereo not drawn) [Metoprolol, reference compound]
Papp A→B at 90 min, 5 μmol/L ([9]; MDCK-MDR1, A-B): 40.5 ×10⁻⁶ cm/s
Papp B→A at 90 min, 5 μmol/L ([9]; MDCK-MDR1, B-A): 28.6 ×10⁻⁶ cm/s

Amyloid-beta 42 [Aβ42]
Rac1 activity in HEK-293 cells [10]: capable of stimulating Rac1 activity
